Here are results for 19 compounds from PubChem BioAssay (NCI).

Some test systems named below: SF-295 CNS; HCT-15 colon; A549 NSCLC; RXF 393 renal; KM12 colon; HCC-2998 colon; OVCAR-5 ovarian; SK-MEL-28 melanoma; K-562 leukemia; CAKI-1 renal.
What all share (assay): growth of human tumour cells (NCI), 48 h

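In this assay, cells in 96-well plates receive the compound at five concentrations for 48 hours. Endpoints are linearly interpolated between the surrounding concentrations. GI50 is the concentration that inhibits growth by half. Definition used: TGI = concentration required for complete inhibition of growth.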

As for `C#CC1(O)CCC2[C@@H]3CCc4cc(Oc5nc(F)nc(-c6c7ccccc7c(SCC)n6CCC)n5)ccc4C3CC[C@@]21C` (stereo partly drawn), the TGI with SF-295 CNS is more than 100 µM; in the assay with HCT-15 colon, more than 100 µM; in the assay with A549 NSCLC, more than 100 µM; in the assay with RXF 393 renal, 55.4 µM; in the assay on KM12 colon it was more than 100 µM; in the assay with HCC-2998 colon it was more than 100 µM. Moreover, the TGI in the assay with OVCAR-5 ovarian, with SK-MEL-28 melanoma and with K-562 leukemia was more than 100 µM each time.

As for `COc1cc2c(cc1OC)C1Cc3ccc(OC)c(OC)c3C[N+]1([O-])CC2` (stereo not drawn), the TGI in the assay with SF-295 CNS, with A549 NSCLC, in the assay with KM12 colon, in the assay with HCC-2998 colon, with OVCAR-5 ovarian and with SK-MEL-28 melanoma was more than 100 µM in each case. Besides, the TGI in the assay on CAKI-1 renal and in the assay with K-562 leukemia was more than 100 µM in each case.

In the case of `C=C1C(=O)O[C@H]2[C@H]1CC/C(COC(=O)CCCc1c[nH]c3ccccc13)=C\CC[C@@]1(C)O[C@@H]21`, the GI50 is 5.69 µM in the assay with SF-295 CNS; 1.61 µM in the assay with HCT-15 colon; 5.47 µM in the assay with A549 NSCLC; 1.46 µM in the assay with RXF 393 renal; 1.89 µM in the assay on KM12 colon; 1.79 µM with HCC-2998 colon. The GI50 in the assay with OVCAR-5 ovarian was 1.89 µM; with SK-MEL-28 melanoma it was 1.7 µM; with K-562 leukemia, 2.6 µM. Further, the TGI with SF-295 CNS worked out at 19 µM; in the assay on HCT-15 colon, 3.99 µM; in the assay with A549 NSCLC, 22.4 µM; with RXF 393 renal, 2.85 µM; in the assay with KM12 colon, 4.31 µM; in the assay on HCC-2998 colon, 3.46 µM. In addition, the TGI with OVCAR-5 ovarian amounted to 3.98 µM; in the assay with SK-MEL-28 melanoma, 3.27 µM; with K-562 leukemia, 11 µM.

Regarding `O=S(=O)(N=NC=C1c2ccccc2N(O)c2ccccc21)c1ccc(Cl)cc1`, the TGI in the assay on SF-295 CNS, in the assay with HCT-15 colon, in the assay on A549 NSCLC, in the assay on KM12 colon, with HCC-2998 colon and in the assay with OVCAR-5 ovarian was more than 100 µM each time. Also, the TGI with SK-MEL-28 melanoma, in the assay on CAKI-1 renal and in the assay on K-562 leukemia was more than 100 µM each time.

For `Cc1nc(/C=C2\C(=O)C=Cc3ccccc32)c(O)o1`, the TGI in the assay on SF-295 CNS, in the assay on HCT-15 colon, in the assay with A549 NSCLC, in the assay on RXF 393 renal, with KM12 colon and in the assay on HCC-2998 colon was more than 100 µM each time. Besides, the TGI in the assay with OVCAR-5 ovarian, in the assay on SK-MEL-28 melanoma and in the assay on K-562 leukemia was more than 100 µM throughout.

As for `C=C1C(=O)O[C@H]2[C@H]1CC/C(COC(=O)OC/C1=C/CC[C@@]3(C)O[C@H]3[C@H]3OC(=O)[C@@H](CN(C)C)[C@@H]3CC1)=C\CC[C@@]1(C)O[C@@H]21`, the GI50 in the assay on SF-295 CNS is 12.1 µM; in the assay with HCT-15 colon it was 1.04 µM; in the assay on A549 NSCLC it was 10.8 µM; in the assay on RXF 393 renal, 0.306 µM; with KM12 colon, 5.49 µM; with HCC-2998 colon, 2.96 µM. Moreover, the results for the GI50 with OVCAR-5 ovarian and with SK-MEL-28 melanoma were 2.13 µM and 1.57 µM, respectively. Also, the TGI in the assay on SF-295 CNS was 24.9 µM; with HCT-15 colon, 2.53 µM; with A549 NSCLC it was 24.3 µM; in the assay on RXF 393 renal, 1.35 µM; in the assay on KM12 colon, 18.7 µM; in the assay on HCC-2998 colon, 8.2 µM. Further, the figures for the TGI in the assay on OVCAR-5 ovarian and in the assay on SK-MEL-28 melanoma were 5.21 µM and 4.23 µM, respectively.

For the compound `C=CCN1/C(=C2\SC(=S)N(c3ccc(C)cc3)C2=O)Sc2c1ncn(C)c2=O`, the TGI with SF-295 CNS, in the assay on HCT-15 colon, with A549 NSCLC, in the assay on KM12 colon, in the assay with HCC-2998 colon and in the assay with OVCAR-5 ovarian was more than 100 µM in each case. For the same compound, the TGI in the assay on CAKI-1 renal and in the assay on K-562 leukemia was more than 100 µM in each case.

As for `COc1ccc2c(c1)NC1(O)c3ccccc3C(=O)C21O` (stereo not drawn), the TGI in the assay with SF-295 CNS, in the assay with A549 NSCLC, with KM12 colon, in the assay with SK-MEL-28 melanoma, in the assay on CAKI-1 renal and in the assay on K-562 leukemia was more than 100 µM throughout.

`O=C(Nc1ccc(F)cc1)Nc1ccc(Br)c(C(F)(F)F)c1`: the GI50 was 1.39 µM in the assay on SF-295 CNS; 2.35 µM with HCT-15 colon; 2.34 µM in the assay with A549 NSCLC; 2.66 µM in the assay with RXF 393 renal; 1.96 µM in the assay on KM12 colon; 2.38 µM in the assay on HCC-2998 colon. Moreover, the GI50 with OVCAR-5 ovarian was 2.55 µM; in the assay on SK-MEL-28 melanoma, 2.83 µM; in the assay with K-562 leukemia, 2.13 µM. For the same compound, the TGI came out at 5.62 µM in the assay on SF-295 CNS; 10.8 µM in the assay on HCT-15 colon; 12.8 µM in the assay on A549 NSCLC; 8.28 µM with RXF 393 renal; 7.92 µM in the assay on KM12 colon; 7.73 µM with HCC-2998 colon. For the same compound, the results for the TGI in the assay with OVCAR-5 ovarian, in the assay on SK-MEL-28 melanoma and with K-562 leukemia were 10.8 µM, 11.1 µM and 11.5 µM, respectively.

Consider `CCOC1NC(=O)Oc2cc3ccccc3cc21` (stereo not drawn), for which the TGI with SF-295 CNS, in the assay with HCT-15 colon, in the assay on A549 NSCLC, in the assay on RXF 393 renal, in the assay with KM12 colon and in the assay with HCC-2998 colon was more than 100 µM each time. The TGI in the assay on OVCAR-5 ovarian, in the assay on SK-MEL-28 melanoma and in the assay on K-562 leukemia was more than 100 µM in each case.

Regarding `Cc1c(Cl)cccc1NC(=O)/C=C/c1ccccc1`, the TGI in the assay on SF-295 CNS, in the assay with HCT-15 colon, with A549 NSCLC, in the assay with KM12 colon, with HCC-2998 colon and in the assay with OVCAR-5 ovarian was more than 100 µM each time. For the same compound, the TGI is more than 100 µM in the assay on SK-MEL-28 melanoma, 73.3 µM with CAKI-1 renal and more than 100 µM in the assay with K-562 leukemia.

For `C/C(CC(=O)Nc1ccccc1C)=N/NS(=O)(=O)c1ccc(C)cc1`, the TGI with SF-295 CNS, in the assay with A549 NSCLC, in the assay on RXF 393 renal, with KM12 colon, in the assay on HCC-2998 colon and with OVCAR-5 ovarian was more than 100 µM each time. Also, the TGI with SK-MEL-28 melanoma and with K-562 leukemia was more than 100 µM each time.

In the case of `N#CC(C#N)=Cc1ccc(CP(=O)(O)O)cc1`, the TGI in the assay with SF-295 CNS, in the assay on HCT-15 colon, in the assay on A549 NSCLC, in the assay on KM12 colon, with HCC-2998 colon and in the assay with OVCAR-5 ovarian was more than 100 µM each time. The TGI in the assay with SK-MEL-28 melanoma, with CAKI-1 renal and in the assay on K-562 leukemia was more than 100 µM in each case.

For the compound `COc1cc(C(=O)O[C@H](C(=O)NCCN(C)CCNC(=O)[C@@H](OC(=O)c2cc(OC)cc3c(C)cccc23)[C@]2(C)CO2)[C@]2(C)CO2)c2cccc(C)c2c1`, the GI50 in the assay on SF-295 CNS is less than 0.0337 µM; in the assay with HCT-15 colon it was 0.0109 µM; in the assay on KM12 colon, 0.0549 µM; in the assay on HCC-2998 colon, less than 0.0241 µM; with OVCAR-5 ovarian, 0.217 µM; in the assay with SK-MEL-28 melanoma, 0.171 µM. In addition, the values for the GI50 in the assay on CAKI-1 renal and with K-562 leukemia were less than 0.01 µM and less than 0.0389 µM, respectively. For the same compound, the TGI with SF-295 CNS is 0.182 µM; in the assay with HCT-15 colon, 1.02 µM; with KM12 colon, 0.465 µM; with HCC-2998 colon it was 0.771 µM; with OVCAR-5 ovarian, 2.75 µM; with SK-MEL-28 melanoma, 0.512 µM. Further, the values for the TGI in the assay with CAKI-1 renal and with K-562 leukemia were 0.0477 µM and 6.85 µM, respectively.

As to `Cc1ccc2nc3cc(C)c(=O)cc-3sc2c1`, the TGI with SF-295 CNS, with HCT-15 colon, in the assay with A549 NSCLC, with KM12 colon, in the assay on HCC-2998 colon and in the assay on OVCAR-5 ovarian was more than 100 µM throughout. Further, the TGI with SK-MEL-28 melanoma, in the assay on CAKI-1 renal and with K-562 leukemia was more than 100 µM each time.

With `Cc1nc(N)nc(N)c1CCCc1ccccc1`, the TGI with SF-295 CNS was more than 100 µM; in the assay with HCT-15 colon it was more than 100 µM; in the assay on A549 NSCLC, more than 100 µM; with KM12 colon, more than 100 µM; in the assay with HCC-2998 colon, 39.2 µM; in the assay with OVCAR-5 ovarian, more than 100 µM. Besides, the figures for the TGI in the assay on SK-MEL-28 melanoma, in the assay with CAKI-1 renal and with K-562 leukemia were 86.1 µM, more than 100 µM and more than 100 µM, respectively.

Consider `COc1ccc2c(c1OC)C(C(Cl)(Cl)Cl)N1CCc3cc4c(cc3C1=C2)OCO4` (stereo not drawn), for which the TGI with SF-295 CNS is more than 100 µM; with HCT-15 colon, more than 100 µM; with A549 NSCLC, more than 100 µM; with KM12 colon it was 20.3 µM; with HCC-2998 colon, 29.5 µM; in the assay with OVCAR-5 ovarian, more than 100 µM. The TGI was 27.8 µM in the assay on SK-MEL-28 melanoma and more than 100 µM with CAKI-1 renal.

On to `NC(=O)c1cccc(OCC(O)CO)c1` (stereo not drawn), for which the TGI with SF-295 CNS, in the assay on HCT-15 colon, in the assay with A549 NSCLC, with KM12 colon, in the assay with HCC-2998 colon and in the assay on OVCAR-5 ovarian was more than 100 µM in each case. For the same compound, the TGI with SK-MEL-28 melanoma, with CAKI-1 renal and in the assay on K-562 leukemia was more than 100 µM in each case.

`O=C1C=Cc2c1ccc1ccccc21`: the GI50 with SF-295 CNS is 20.8 µM; with HCT-15 colon, 24.1 µM; in the assay with A549 NSCLC, 18.3 µM; in the assay on KM12 colon, 24.5 µM; with OVCAR-5 ovarian it was 16.1 µM; with SK-MEL-28 melanoma it was 80.4 µM. Further, the GI50 was 11.1 µM with CAKI-1 renal and 28.7 µM in the assay on K-562 leukemia. Besides, the TGI with SF-295 CNS was 63.6 µM; with HCT-15 colon, more than 100 µM; in the assay with A549 NSCLC, 65.8 µM; in the assay with KM12 colon, 77.5 µM; in the assay with OVCAR-5 ovarian it was 67.4 µM; in the assay on SK-MEL-28 melanoma, more than 100 µM. The TGI in the assay with CAKI-1 renal was 33 µM; in the assay with K-562 leukemia, more than 100 µM.
